These are literature values, as cited in US8679533B2, “Pramipexole once-daily dosage form” (Pharmacia Corporation, priority 2002, dated 2014).

The conditions of this data set: dihydrochloride salt, 20-25° C.

As to `CCCN[C@H]1CCc2nc(N)sc2C1` [pramipexole, (S)-2-amino-4,5,6,7-tetrahydro-6-(propylamino)-benzothiazole], the solubility in water result is on record as “about 200 mg/ml”.
